# Experimental data reported in ChEMBL document CHEMBL2029319, “Kappa agonist CovX-Bodies” (Bioorg Med Chem Lett, 2012).
# Target: Kappa-type opioid receptor (Homo sapiens, UniProt P41145)
# Assay: Agonist activity at recombinant kappa opioid receptor expressed in human U2OS cells coexpressing beta arrestin/EA complex assessed as beta arrestin recruitment after 60 mins by luminescence spectrophotometry
# Format: functional, cell-based
# Kappa-type opioid receptor (Homo sapiens, UniProt P41145), sequence (P41145 whole entry): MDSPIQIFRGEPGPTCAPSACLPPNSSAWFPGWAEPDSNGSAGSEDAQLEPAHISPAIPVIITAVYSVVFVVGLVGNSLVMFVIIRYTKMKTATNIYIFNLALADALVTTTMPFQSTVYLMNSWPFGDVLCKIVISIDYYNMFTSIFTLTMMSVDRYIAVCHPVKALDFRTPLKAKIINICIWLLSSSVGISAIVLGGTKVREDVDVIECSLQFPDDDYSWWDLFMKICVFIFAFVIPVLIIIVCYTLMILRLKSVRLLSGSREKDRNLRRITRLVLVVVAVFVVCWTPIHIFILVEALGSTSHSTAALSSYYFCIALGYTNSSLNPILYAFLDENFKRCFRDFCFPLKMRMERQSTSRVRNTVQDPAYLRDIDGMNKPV
row,SMILES,EC50 [nM]
1,CC(C)C[C@@H](NC(=O)[C@@H](Cc1ccccc1)NC(=O)[C@H](N)Cc1ccccc1)C(=O)N[C@H](CCCCN)C(=O)NCC(=O)NCCSC1CC(=O)N(CCC(=O)NCCOCCOCCC(=O)Nc2ccc(CCC(=O)N3CCC3=O)cc2)C1=O (stereo partly drawn),1480
2,CC(C)C[C@@H](NC(=O)[C@@H](Cc1ccccc1)NC(=O)[C@H](N)Cc1ccccc1)C(=O)N[C@H](CCCCN)C(=O)NCC(=O)NCC(=O)NCC(=O)NCCSC1CC(=O)N(CCC(=O)NCCOCCOCCC(=O)Nc2ccc(CCC(=O)N3CCC3=O)cc2)C1=O (stereo partly drawn),176
3,CC(C)C[C@@H](NC(=O)[C@@H](Cc1ccccc1)NC(=O)[C@H](N)Cc1ccccc1)C(=O)N[C@H](CCCCN)C(=O)NCC(=O)NCC(=O)NCC(=O)NCCSC1CC(=O)N(c2ccc(CCC(=O)N3CCC3=O)cc2)C1=O (stereo partly drawn),5
4,CC(C)C[C@@H](NC(=O)[C@@H](Cc1ccccc1)NC(=O)[C@H](N)Cc1ccccc1)C(=O)N[C@H](CCCCN)C(N)=O,3
5,CC(C)C[C@@H](NC(=O)[C@@H](Cc1ccccc1)NC(=O)[C@H](N)Cc1ccccc1)C(=O)N[C@H](CCCCN)C(=O)NCC(=O)NCCSC1CC(=O)N(c2ccc(CCC(=O)N3CCC3=O)cc2)C1=O (stereo partly drawn),3

# Target: Kappa-type opioid receptor (Cavia porcellus, UniProt P41144)
# Sequence (P41144 whole entry): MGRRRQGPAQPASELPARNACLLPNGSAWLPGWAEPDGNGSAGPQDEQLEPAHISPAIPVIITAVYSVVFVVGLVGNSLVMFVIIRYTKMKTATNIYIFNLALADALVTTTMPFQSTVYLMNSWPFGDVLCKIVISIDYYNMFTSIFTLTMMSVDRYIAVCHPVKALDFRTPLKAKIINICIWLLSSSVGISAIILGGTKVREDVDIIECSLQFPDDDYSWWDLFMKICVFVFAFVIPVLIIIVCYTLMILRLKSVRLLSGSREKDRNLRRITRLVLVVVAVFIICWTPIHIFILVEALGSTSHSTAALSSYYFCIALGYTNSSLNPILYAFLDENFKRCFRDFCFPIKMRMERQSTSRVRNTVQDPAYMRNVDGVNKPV
# Assay: Agonist activity at kappa opioid receptor in guinea pig ileum assessed as electric field-stimulated response
# Format: functional, tissue-based
row,SMILES,EC50 [nM]
1,CC(C)C[C@@H](NC(=O)[C@@H](Cc1ccccc1)NC(=O)[C@H](N)Cc1ccccc1)C(=O)N[C@H](CCCCN)C(=O)N1CCC(CC(=O)NCCOCCOCC(=O)NCC(=O)NCc2cn(-c3ccc(C(=O)Nc4ccc(CCC(=O)N5CCC5=O)cc4)cc3)nn2)CC1,0.2
2,CC(C)C[C@@H](NC(=O)[C@@H](Cc1ccccc1)NC(=O)[C@H](N)Cc1ccccc1)C(=O)N[C@H](CCCCN)C(=O)N1CCC(C(=O)NCCOCCOCC(=O)NCC(=O)NCc2cn(-c3ccc(C(=O)Nc4ccc(CCC(=O)N5CCC5=O)cc4)cc3)nn2)CC1,0.1
3,CC(C)C[C@@H](NC(=O)[C@@H](Cc1ccccc1)NC(=O)[C@H](N)Cc1ccccc1)C(=O)N[C@H](CCCCN)C(N)=O,0.22
